# Measured values published in the NIST ThermoML archive (doi:10.1016/j.jct.2014.10.008).
# Numbers after ± are expanded uncertainties.
# Experiment: osmotic coefficient (dimensionless); mn = molality of the nth substance listed, in mol/kg
# Conditions: 101 kPa, Liquid, Vapor pressure osmometer - Knauer K-7000
smiles,measurement,setting,value
CCCC[N+]1(C)CCCC1.N#CN=C=[N-] [1-butyl-1-methylpyrrolidinium dicyanamide] + O,osmotic coefficient,"313.15 K, m1 = 0.0272",0.915 ± 0.014
same,osmotic coefficient,"313.15 K, m1 = 0.0491",0.849 ± 0.015
same,osmotic coefficient,"313.15 K, m1 = 0.0864",0.734 ± 0.016
same,osmotic coefficient,"313.15 K, m1 = 0.1088",0.697 ± 0.016
same,osmotic coefficient,"313.15 K, m1 = 0.1499",0.68 ± 0.017
same,osmotic coefficient,"313.15 K, m1 = 0.1968",0.627 ± 0.018
same,osmotic coefficient,"313.15 K, m1 = 0.3968",0.503 ± 0.021
same,osmotic coefficient,"313.15 K, m1 = 0.5057",0.471 ± 0.022
same,osmotic coefficient,"313.15 K, m1 = 0.7825",0.433 ± 0.023
same,osmotic coefficient,"313.15 K, m1 = 0.9665",0.416 ± 0.024
same,osmotic coefficient,"313.15 K, m1 = 1.474",0.373 ± 0.025
same,osmotic coefficient,"323.15 K, m1 = 0.0272",0.982 ± 0.015
same,osmotic coefficient,"323.15 K, m1 = 0.0512",0.879 ± 0.013
same,osmotic coefficient,"323.15 K, m1 = 0.0928",0.855 ± 0.013
same,osmotic coefficient,"323.15 K, m1 = 0.112",0.846 ± 0.013
same,osmotic coefficient,"323.15 K, m1 = 0.1499",0.81 ± 0.014
same,osmotic coefficient,"323.15 K, m1 = 0.1968",0.747 ± 0.015
same,osmotic coefficient,"323.15 K, m1 = 0.2912",0.673 ± 0.017
same,osmotic coefficient,"323.15 K, m1 = 0.3968",0.656 ± 0.017
same,osmotic coefficient,"323.15 K, m1 = 0.5057",0.608 ± 0.018
same,osmotic coefficient,"323.15 K, m1 = 0.7825",0.538 ± 0.02
same,osmotic coefficient,"323.15 K, m1 = 0.9665",0.48 ± 0.022
same,osmotic coefficient,"323.15 K, m1 = 1.488",0.405 ± 0.024
same,osmotic coefficient,"328.15 K, m1 = 0.024",1.05 ± 0.013
same,osmotic coefficient,"328.15 K, m1 = 0.0896",0.859 ± 0.014
same,osmotic coefficient,"328.15 K, m1 = 0.1248",0.815 ± 0.014
same,osmotic coefficient,"328.15 K, m1 = 0.2032",0.747 ± 0.015
same,osmotic coefficient,"328.15 K, m1 = 0.2913",0.682 ± 0.017
same,osmotic coefficient,"328.15 K, m1 = 0.4017",0.642 ± 0.018
same,osmotic coefficient,"328.15 K, m1 = 0.5041",0.585 ± 0.019
same,osmotic coefficient,"328.15 K, m1 = 0.7825",0.559 ± 0.02
same,osmotic coefficient,"328.15 K, m1 = 0.973",0.498 ± 0.021
same,osmotic coefficient,"328.15 K, m1 = 1.496",0.424 ± 0.024
CCCCCCCC[n+]1ccn(C)c1.[Cl-] [1-methyl-3-octylimidazolium chloride] + O,osmotic coefficient,"313.15 K, m1 = 0.0346",1.05 ± 0.013
same,osmotic coefficient,"313.15 K, m1 = 0.0491",1 ± 0.016
same,osmotic coefficient,"313.15 K, m1 = 0.0809",0.816 ± 0.015
same,osmotic coefficient,"313.15 K, m1 = 0.1329",0.727 ± 0.016
same,osmotic coefficient,"313.15 K, m1 = 0.182",0.681 ± 0.017
same,osmotic coefficient,"313.15 K, m1 = 0.2455",0.617 ± 0.018
same,osmotic coefficient,"313.15 K, m1 = 0.2917",0.555 ± 0.02
same,osmotic coefficient,"313.15 K, m1 = 0.3582",0.531 ± 0.02
same,osmotic coefficient,"313.15 K, m1 = 0.4679",0.48 ± 0.022
same,osmotic coefficient,"313.15 K, m1 = 0.5228",0.45 ± 0.023
same,osmotic coefficient,"313.15 K, m1 = 0.6037",0.424 ± 0.024
same,osmotic coefficient,"313.15 K, m1 = 0.7323",0.383 ± 0.025
same,osmotic coefficient,"313.15 K, m1 = 0.8825",0.343 ± 0.026
same,osmotic coefficient,"313.15 K, m1 = 1.072",0.317 ± 0.027
same,osmotic coefficient,"313.15 K, m1 = 1.356",0.289 ± 0.028
same,osmotic coefficient,"313.15 K, m1 = 1.771",0.266 ± 0.029
same,osmotic coefficient,"323.15 K, m1 = 0.0419",1.1 ± 0.014
same,osmotic coefficient,"323.15 K, m1 = 0.052",1.06 ± 0.014
same,osmotic coefficient,"323.15 K, m1 = 0.0858",0.946 ± 0.013
same,osmotic coefficient,"323.15 K, m1 = 0.1118",0.918 ± 0.013
same,osmotic coefficient,"323.15 K, m1 = 0.182",0.726 ± 0.016
same,osmotic coefficient,"323.15 K, m1 = 0.2455",0.675 ± 0.017
same,osmotic coefficient,"323.15 K, m1 = 0.2917",0.633 ± 0.018
same,osmotic coefficient,"323.15 K, m1 = 0.3582",0.587 ± 0.019
same,osmotic coefficient,"323.15 K, m1 = 0.4679",0.54 ± 0.02
same,osmotic coefficient,"323.15 K, m1 = 0.5228",0.498 ± 0.021
same,osmotic coefficient,"323.15 K, m1 = 0.6037",0.464 ± 0.022
same,osmotic coefficient,"323.15 K, m1 = 0.7323",0.424 ± 0.024
same,osmotic coefficient,"323.15 K, m1 = 0.8825",0.384 ± 0.025
same,osmotic coefficient,"323.15 K, m1 = 1.072",0.345 ± 0.026
same,osmotic coefficient,"323.15 K, m1 = 1.356",0.31 ± 0.027
same,osmotic coefficient,"323.15 K, m1 = 1.771",0.3 ± 0.028
same,osmotic coefficient,"328.15 K, m1 = 0.0361",1.14 ± 0.013
same,osmotic coefficient,"328.15 K, m1 = 0.0506",1.12 ± 0.013
same,osmotic coefficient,"328.15 K, m1 = 0.0852",1.08 ± 0.012
same,osmotic coefficient,"328.15 K, m1 = 0.1329",1.07 ± 0.012
same,osmotic coefficient,"328.15 K, m1 = 0.1791",1.02 ± 0.012
same,osmotic coefficient,"328.15 K, m1 = 0.2484",0.962 ± 0.012
same,osmotic coefficient,"328.15 K, m1 = 0.2947",0.957 ± 0.012
same,osmotic coefficient,"328.15 K, m1 = 0.3568",0.929 ± 0.012
same,osmotic coefficient,"328.15 K, m1 = 0.468",0.906 ± 0.012
same,osmotic coefficient,"328.15 K, m1 = 0.5243",0.875 ± 0.013
same,osmotic coefficient,"328.15 K, m1 = 0.6052",0.844 ± 0.013
same,osmotic coefficient,"328.15 K, m1 = 0.7352",0.753 ± 0.015
same,osmotic coefficient,"328.15 K, m1 = 0.8826",0.689 ± 0.016
same,osmotic coefficient,"328.15 K, m1 = 1.072",0.624 ± 0.018
same,osmotic coefficient,"328.15 K, m1 = 1.359",0.556 ± 0.02
same,osmotic coefficient,"328.15 K, m1 = 1.774",0.479 ± 0.022
